Data reported in PMC4501119, “Cholestenoic acid, an endogenous cholesterol metabolite, is a potent γ-secretase modulator” (Molecular Neurodegeneration, 2015).
Several values for one entry are separate records, joined by “and”; a condition that tells them apart may be missing. Identical values can stand only once. Entries after “also recorded” stand apart in the source; their conditions may differ.

Experiments:
γ-secretase = molecular target: T1, γ-secretase (Homo sapiens, UniProt P49768); assay: In vitro γ-secretase (broken cell) assay, membranes of H4 neuroglioma cells overexpressing APP695wt, Aβ ELISA; format: biochemical; conditions: vs DMSO control, 2 h incubation
T1 construct: The membrane derived from the H4 neuroglioma cells overexpressing APP695wt were prepared by carbonate extraction; endogenous in cells; host or cells: H4 neuroglioma cells overexpressing APP695wt (membranes, carbonate extraction)
Experimental: Broken cell assays were performed with slight modifications from the previous studies. The membrane derived from the H4 neuroglioma cells overexpressing APP695wt were prepared by carbonate extraction and incubated at 37 °C for 2 h with CA at various concentrations. Aβ levels were quantified by sandwich ELISAs. For Aβ and AICD spectra, the recombinant C100Flag proteins were overexpressed and purified from Escherichia coli BL21 using a HiTrap Q-column (GE Life Science, Little Chalfont, U.K.). The membrane containing γ-secretase was isolated from the CHO S-1 cell line using sodium carbonate (100 mM, pH 11.0). For the in vitro γ-secretase assay, C100Flag recombinant protein at 25 μM was incubated with the membrane (100 μg/mL) in the presence of CA (20 μM) and DMSO in 150 mM sodium citrate buffer (pH 6.8) containing complete protease inhibitor (Roche, Indianapolis, IN) for 2 h at 37 °C.
Monoclonal antibodies to Aβ were generated by the Mayo Clinic Immunology Core facilities (Jacksonville, FL, USA). Ab5 recognizes an epitope in the amino terminus of Aβ (Aβ1-16), recognizes both monomeric and aggregated Aβ, and is human specific. […] Ab 2.1.3 was raised against Aβ35-42 and is specific for Aβx-42. […] For cell-based screens, Aβ was captured from conditioned medium with either Ab5, Ab38, Ab13.1.1, or Ab2.1.3 (coated at 10-50 μg/ml in EC buffer: 5 mM NaH2PO4-H2O, 20 mM Na2HPO4, 400 mM NaCl, 2.5 mM EDTA-full name, 151.5 μM BSA, 813 μM CHAPS, and 7.7 mM NaN3) on Immulon 4HBX Flat-Bottom Microfilter 96-well plates (Thermo Scientific, Waltham, MA, USA). Total Aβ level was determined by capture with Ab5 and detected with horseradish peroxidase (HRP)-conjugated 4G8 (a monoclonal antibody against Aβ17-24; Covance, Waltham, MA, USA) with the other Aβ peptides detected with HRP-conjugated Ab5. For the cell-free assay and measuring mouse endogenous Aβ, HRP-conjugated 4G8 was used as the secondary detection antibody. Aβ standards (Bachem, King of Prussia, PA, USA) were prepared by dissolving in hexafluoroisopropanol (HFIP) at 1 mg/ml with sonication, dried under nitrogen, resuspended at 2 mg/ml HFIP, sonicated again and dried under nitrogen. The resulting Aβ was resuspended in 0.01 % ammonium hydroxide, portioned into aliquots in EC buffer, and frozen at −80 °C. Following these steps, the Aβ is monomeric, as determined by size-exclusion chromatography.

[1] = test system: brain mAβ42, mAβ38 and total mAβ; assay: Brain Aβ levels after intraperitoneal injection in wild type mice; format: in vivo, mouse (C57BL/6 or CF-1)
Experimental: 25(R)-CA powder was initially dissolved in DMSO (<4.5 % in the final mixture) and then combined with polyethylene glycol (15)-hydroxystearate (Solutol), ethanol, and water at a ratio of (15:10:75). One molar equivalent of sodium hydroxide was added to the mixture. We performed CA intraperitoneal (IP) injections to wild-type mice (C57BL/6 or CF-1). The mice were injected with 25(R)-CA on the right side of the abdomen. The injections have been performed with various time points (30 min, 1 h, 2 h, and 3 h) and with multiple doses (30 mg per kg (mg/kg), 60 mg/kg, 75 mg/kg and 100 mg/kg). The number of each cohort is 6–8. We used 30 mg/kg of CA for the time-course experiments, and for the dose–response experiments the end-point was set at 30 min. The brains and serum are harvested and frozen for brain Aβ extraction.
The mouse brains were harvested at the age of 3 months. The brains were weighed and recorded. The Diethylamine/Sodium Chloride (DEA/NaCl) extraction buffer (0.4 % DEA) was added to each sample and homogenized using a sonicator. The samples were transferred to a poly-carbonate centrifuge tube and spun down at 50,000xg for 30 min at 4 °C. The supernatant was loaded on the vacuum manifold with the appropriate number of HLB Oasis columns. The samples were loaded on the conditioned column, filtered, and eluted using prepared elution buffer (90 % Methanol, 2 % NH4OH). The eluates are concentrated using the Thermo-Savant SpeedVac concentrator for a minimum of 2 h at 55 °C with radiant heat. The concentrated samples are reconstituted in a blocking buffer (0.67 % Bovine serum albumin (BSA)) at the appropriate volume.
Monoclonal antibodies to Aβ were generated by the Mayo Clinic Immunology Core facilities (Jacksonville, FL, USA). […] Total Aβ level was determined by capture with Ab5 and detected with horseradish peroxidase (HRP)-conjugated 4G8 (a monoclonal antibody against Aβ17-24; Covance, Waltham, MA, USA) with the other Aβ peptides detected with HRP-conjugated Ab5. […] Following these steps, the Aβ is monomeric, as determined by size-exclusion chromatography.

[2] = test system: Aβ peptides in CHO-2B7 cells; assay: IP/MS (MALDI-TOF) Aβ profile of CHO-2B7 conditioned media; format: cell-based, Chinese hamster; conditions: 3 μM, vs DMSO control
Experimental: Chinese hamster ovary (CHO) cells stably overexpressing APP695 (CHO-2B7 cells) were grown in Ham’s F-12 medium (Life Technologies) supplemented with 10 % fetal bovine serum and 100 units/ml of penicillin and 100 μg/ml streptomycin. Cells were grown at 37 °C in a humidified atmosphere containing 5 % CO2 in tissue culture plates (Costar). The cells were harvested at confluence and then utilized for biochemical analyses. Compounds were dissolved in dimethyl sulfoxide (DMSO) and screened in CHO-2B7 cells. The cells were incubated for 16 h in the presence of the compound diluted into OptiMEM-reduced serum medium (Life Technologies, Carlsbad, CA, USA) containing 1 % fetal bovine serum.
Conditioned media from the CHO-2B7 cells and the samples prepared from in vitro γ-secretase studies were used to analyze Aβ and AICD profiles using matrix-assisted laser desorption/ionization time of flight (MALDI-TOF) mass spectrometry analysis. The secreted Aβ peptides were analyzed as previously described with the following modifications. Briefly, the Aβ peptides were immunoprecipitated using Ab5 recognizing the Aβ1-16 epitope and sheep anti-mouse IgG magnetic Dynabeads (Life Technologies, catalog no. 11201D) and the AICD fragments were captured using anti-Flag M2 magnetic beads (Sigma). […] Samples were analyzed using a Bruker Microflex LRF-MALDI-TOF mass spectrometer.

CC(CCC[C@@H](C)C(=O)O)[C@H]1CCC2C3CC=C4C[C@@H](O)CC[C@]4(C)C3CC[C@@]21C (stereo partly drawn) [Cmpd 2a, 25(R)-cholestenoic acid]
change in total Aβ levels (γ-secretase): without any significant changes
decrease of Aβ42 production (γ-secretase; CA at 150 μM, listed as CA): 50% and 51%
brain Aβ levels ([1]; 30 mg/kg IP, brains harvested after 30 min, 1, 2 and 3 h): no changes
brain mAβ42, mAβ38 and total mAβ ([1]; 30, 60, 75, 100 mg/kg IP, vs vehicle-injected control, listed as CA): No significant effects; also recorded: did not show acute effects; also recorded: did not affect
Aβ spectra by mass spectrometry [2]: increased Aβ38 peak and decreased Aβ42 peak with no significant changes in Aβ40 peak
